Measurements published in patent publication US11066369B2, “N-(pyridin-2-yl)pyridine-sulfonamide derivatives and their use in the treatment of disease” (Novartis AG, priority 2016, dated 2021).
Where a name gives a salt, the structure may show the parent alone. Read-outs that look alike come from different tables or passages of the source.

Assays:
[1] = biological target: T1, horseradish peroxidase (HRP) tagged delF508-CFTR (Homo sapiens, UniProt P13569, DEL508-508); test: Measurement of delF508-CFTR-HRP surface expression in CFBE41o- cells; format: cell-based; conditions: for Emax: read-out: DelF508-CFTR-HRP Amax %;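 on DelF508-CFTR-HRP Amax %: percent efficacy relative to reference corrector lumacaftor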
T1 construct: expressed in transfected cells
T1 sequence (P13569 with tags, fused parts or gaps DEL508-508): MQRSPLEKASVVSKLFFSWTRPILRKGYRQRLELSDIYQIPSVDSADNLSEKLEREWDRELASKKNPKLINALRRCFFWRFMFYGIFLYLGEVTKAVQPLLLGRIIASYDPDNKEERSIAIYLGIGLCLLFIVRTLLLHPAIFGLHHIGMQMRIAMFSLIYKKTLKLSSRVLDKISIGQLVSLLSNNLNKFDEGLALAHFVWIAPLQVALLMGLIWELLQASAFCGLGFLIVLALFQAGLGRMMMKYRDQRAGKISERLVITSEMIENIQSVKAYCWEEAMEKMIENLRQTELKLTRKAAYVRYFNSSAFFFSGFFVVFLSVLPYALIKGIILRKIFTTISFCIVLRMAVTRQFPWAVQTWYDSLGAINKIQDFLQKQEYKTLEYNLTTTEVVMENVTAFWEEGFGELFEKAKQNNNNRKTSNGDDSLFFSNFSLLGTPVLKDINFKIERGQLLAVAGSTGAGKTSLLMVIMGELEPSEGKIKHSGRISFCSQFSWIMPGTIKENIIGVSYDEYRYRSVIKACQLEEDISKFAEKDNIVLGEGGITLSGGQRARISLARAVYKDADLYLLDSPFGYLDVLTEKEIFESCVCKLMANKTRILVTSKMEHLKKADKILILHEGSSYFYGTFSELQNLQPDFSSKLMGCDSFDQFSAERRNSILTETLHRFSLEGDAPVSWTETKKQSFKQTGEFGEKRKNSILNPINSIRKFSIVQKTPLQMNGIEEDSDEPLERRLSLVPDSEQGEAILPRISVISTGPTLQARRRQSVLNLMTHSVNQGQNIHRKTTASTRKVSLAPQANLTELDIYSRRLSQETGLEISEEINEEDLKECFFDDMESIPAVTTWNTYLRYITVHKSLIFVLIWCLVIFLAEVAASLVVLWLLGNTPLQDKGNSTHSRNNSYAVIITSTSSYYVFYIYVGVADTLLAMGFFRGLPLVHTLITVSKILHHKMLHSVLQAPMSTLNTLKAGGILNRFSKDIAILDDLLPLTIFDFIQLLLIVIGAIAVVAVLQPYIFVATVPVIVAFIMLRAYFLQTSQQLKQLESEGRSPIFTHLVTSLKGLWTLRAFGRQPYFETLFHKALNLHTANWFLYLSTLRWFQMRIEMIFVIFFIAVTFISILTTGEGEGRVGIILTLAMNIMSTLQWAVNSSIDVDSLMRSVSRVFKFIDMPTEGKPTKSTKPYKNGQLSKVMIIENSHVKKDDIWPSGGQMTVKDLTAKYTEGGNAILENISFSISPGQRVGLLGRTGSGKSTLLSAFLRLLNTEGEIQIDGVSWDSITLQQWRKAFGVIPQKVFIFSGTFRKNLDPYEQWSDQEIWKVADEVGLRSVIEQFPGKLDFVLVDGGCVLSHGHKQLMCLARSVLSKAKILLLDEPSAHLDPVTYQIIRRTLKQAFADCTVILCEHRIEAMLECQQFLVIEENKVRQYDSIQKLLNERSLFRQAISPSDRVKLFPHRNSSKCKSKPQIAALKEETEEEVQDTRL
How it was run: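 CFBE41o- bronchial epithelial cells stably expressing delF508-CFTR with HRP in the fourth extracellular loop; expression induced 48h with 500 ng/mL doxycycline, then compounds added (top 10 μM, 10-point 3-fold series, ≤0.5% DMSO) for 24h at 37° C. Surface HRP measured by luminescence with cell-impermeant substrate; EC50 from logistic fit of triplicates, plate-normalized to lowest concentration; efficacy also relative to a reference corrector.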

delF508-CFTR = biological target: T2, delF508-CFTR (Homo sapiens, UniProt P13569, DEL508-508); test: Measurement of delF508-CFTR functional activity in primary human bronchial epithelial cells (HBECs) using Multi-Transepithelial Clamp Circuit (MTECC-24) assay; format: cell-based; conditions: primary CF HBECs; for MTECC24 CFHBEC- Amax %: test compound added 24h before assay plus potentiator, relative to reference combination (2 μM corrector + 0.5 μM potentiator); for EC50: test compound added 24h before assay, in the presence of potentiator, mean of at least two replicates, read-out: MTECC24 CFHBEC- EC50
T2 construct: functional activity of the CFTR channel (Chloride ion transport) in patient derived primary human bronchial epithelial cells; host or cells: patient-derived primary human bronchial epithelial cells (delF508-CFTR)
T2 sequence (P13569 with tags, fused parts or gaps DEL508-508): as above
How it was run: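 Patient-derived primary delF508-CFTR HBECs, differentiated at air-liquid interface ~2 weeks, treated basolaterally with compound for 24 h, then apical and basolateral compound in HEPES pH 7.4 assay medium. Equivalent short-circuit current (Ieq) recorded on MTECC-24 with sequential amiloride, forskolin, potentiator and INH-172; normalized to 0.1% DMSO, EC50 from curve fit.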

[2] = delF508-CFTR-HRP surface expression, CFBE41o- cells
[3] = delF508-CFTR-HRP surface expression, CFBE41o- cells, read-out: DelF508-CFTR-HRP EC50

With `Cc1ccccc1-c1nc(NS(=O)(=O)c2cccc(N3CCN(C(=O)OC(C)(C)C)[C@@H](CO)C3)n2)ccc1C(F)(F)F` [Example 164, tert-butyl (R)-2-(hydroxymethyl)-4-(6-(N-(6-(o-tolyl)-5-(trifluoromethyl)pyridin-2-yl)sulfamoyl)pyridin-2-yl)piperazine-1-carboxylate] the Emax [1, 2] was 578%, the EC50 [1, 3] was 1060 nM and the “MTECC24 CFHBEC- Amax %” value (delF508-CFTR) was 74.3%. The EC50 (delF508-CFTR) was 49.5 nM.

`Cc1ccccc1-c1nc(NS(=O)(=O)c2cccc(N3CCN[C@@H](CO)C3)n2)ccc1C(F)(F)F` [Example 165, (R)-6-(3-(hydroxymethyl)piperazin-1-yl)-N-(6-(o-tolyl)-5-(trifluoromethyl)pyridin-2-yl)pyridine-2-sulfonamide hydrochloride] was tested, and the Emax [1, 2] was 401%, the EC50 [1, 3] was 2900 nM and the “MTECC24 CFHBEC- Amax %” value (delF508-CFTR) was 50.8%. For the same molecule, the EC50 (delF508-CFTR) was 342 nM.

With `Cc1ccccc1-c1nc(NS(=O)(=O)c2cccc(N3CCN(C(=O)OC(C)(C)C)[C@H](C)C3)n2)ccc1C(F)(F)F` [Example 166, tert-butyl (R)-2-methyl-4-(6-(N-(6-(o-tolyl)-5-(trifluoromethyl)pyridin-2-yl)sulfamoyl)pyridin-2-yl)piperazine-1-carboxylate] the EC50 [1, 3] was 744 nM, the “MTECC24 CFHBEC- Amax %” value (delF508-CFTR) was 62.4% and the EC50 (delF508-CFTR) was 11.8 nM.

`Cc1ccccc1-c1nc(NS(=O)(=O)c2cccc(N3CCN[C@H](C)C3)n2)ccc1C(F)(F)F` [Example 167, (R)-6-(3-methylpiperazin-1-yl)-N-(6-(o-tolyl)-5-(trifluoromethyl)pyridin-2-yl)pyridine-2-sulfonamide Hydrochloride] was tested, and the Emax [1, 2] was 317%, the EC50 [1, 3] was 3710 nM and the “MTECC24 CFHBEC- Amax %” value (delF508-CFTR) was 67.6%. The EC50 (delF508-CFTR) was 85.5 nM.

In the case of `Cc1ccc(C(F)(F)F)cc1-c1nc(NS(=O)(=O)c2cccc(N3CCNCC3)n2)ccc1Cl` [Example 169, N-(5-chloro-6-(2-methyl-5-(trifluoromethyl)phenyl)pyridin-2-yl)-6-(piperazin-1-yl)pyridine-2-sulfonamide Hydrochloride], the Emax [1, 2] is reported as 182%, the EC50 [1, 3] is reported as 4000 nM and the “MTECC24 CFHBEC- Amax %” value (delF508-CFTR) is reported as 40.5%. For the same molecule, the EC50 (delF508-CFTR) was 144 nM.

With `Cc1ccccc1-c1nc(NS(=O)(=O)c2cccc(N3CCNC[C@@H]3C)n2)ccc1C(F)(F)F` [Example 170, (S)-6-(2-methylpiperazin-1-yl)-N-(6-(o-tolyl)-5-(trifluoromethyl)pyridin-2-yl)pyridine-2-sulfonamide Hydrochloride] the Emax [1, 2] was 306%, the EC50 [1, 3] was 2200 nM and the “MTECC24 CFHBEC- Amax %” value (delF508-CFTR) was 63.3%. The EC50 (delF508-CFTR) was 174 nM.

With `Cc1ccccc1-c1nc(NS(=O)(=O)c2cccc(N3CCNC[C@H]3C)n2)ccc1C(F)(F)F` [Example 171, (R)-6-(2-methylpiperazin-1-yl)-N-(6-(o-tolyl)-5-(trifluoromethyl)pyridin-2-yl)pyridine-2-sulfonamide Hydrochloride] the Emax [1, 2] was 505%, the EC50 [1, 3] was 2730 nM and the “MTECC24 CFHBEC- Amax %” value (delF508-CFTR) was 66.2%. It also gave an EC50 (delF508-CFTR) of 118 nM.

In the case of `Cc1cccc(C)c1-c1nc(NS(=O)(=O)c2cccc(N3CCN[C@@H](CO)C3)n2)ccc1C(F)(F)F` [Example 172, (R)—N-(6-(2,6-dimethylphenyl)-5-(trifluoromethyl)pyridin-2-yl)-6-(3-(hydroxymethyl)piperazin-1-yl)pyridine-2-sulfonamide Hydrochloride], the Emax [1, 2] is reported as 684%, the EC50 [1, 3] is reported as 2510 nM and the “MTECC24 CFHBEC- Amax %” value (delF508-CFTR) is reported as 77.0%. It also gave an EC50 (delF508-CFTR) of 314 nM.

With `Cc1cccc(C)c1-c1nc(NS(=O)(=O)c2cccc(N3CCN[C@H](CO)C3)n2)ccc1C(F)(F)F` [Example 173, (S)—N-(6-(2,6-dimethylphenyl)-5-(trifluoromethyl)pyridin-2-yl)-6-(3-(hydroxymethyl)piperazin-1-yl)pyridine-2-sulfonamide Hydrochloride] the Emax [1, 2] was 682%, the EC50 [1, 3] was 2370 nM and the “MTECC24 CFHBEC- Amax %” value (delF508-CFTR) was 61.4%. The EC50 (delF508-CFTR) was 76.9 nM.

In the case of `Cc1ccc(F)cc1-c1nc(NS(=O)(=O)c2cccc(N3CCN[C@@H](CO)C3)n2)ccc1C(F)(F)F` [Example 174, (R)—N-(6-(5-fluoro-2-methylphenyl)-5-(trifluoromethyl)pyridin-2-yl)-6-(3-(hydroxymethyl)piperazin-1-yl)pyridine-2-sulfonamide Hydrochloride], the Emax [1, 2] is reported as 515%, the EC50 [1, 3] is reported as 2640 nM and the “MTECC24 CFHBEC- Amax %” value (delF508-CFTR) is reported as 57.1%. The EC50 (delF508-CFTR) was 207 nM.

For `Cc1ccc(F)cc1-c1nc(NS(=O)(=O)c2cccc(N3CCN[C@H](CO)C3)n2)ccc1C(F)(F)F` [Example 175, (S)—N-(6-(5-fluoro-2-methylphenyl)-5-(trifluoromethyl)pyridin-2-yl)-6-(3-(hydroxymethyl)piperazin-1-yl)pyridine-2-sulfonamide Hydrochloride], the Emax [1, 2] was 530%, the EC50 [1, 3] was 3270 nM and the “MTECC24 CFHBEC- Amax %” value (delF508-CFTR) was 63.4%. For the same molecule, the EC50 (delF508-CFTR) was 281 nM.

In the case of `Cc1ccc(F)cc1-c1nc(NS(=O)(=O)c2cccc(N3CCN[C@H](C)C3)n2)ccc1C(F)(F)F` [Example 176, (R)—N-(6-(5-fluoro-2-methylphenyl)-5-(trifluoromethyl)pyridin-2-yl)-6-(3-methylpiperazin-1-yl)pyridine-2-sulfonamide Hydrochloride], the Emax [1, 2] is reported as 529%, the EC50 [1, 3] is reported as 3420 nM and the “MTECC24 CFHBEC- Amax %” value (delF508-CFTR) is reported as 69.8%. For the same molecule, the EC50 (delF508-CFTR) was 224 nM.

With `Cc1ccc(F)cc1-c1nc(NS(=O)(=O)c2cccc(N3CCN[C@@H](C)C3)n2)ccc1C(F)(F)F` [Example 177, (S)—N-(6-(5-fluoro-2-methylphenyl)-5-(trifluoromethyl)pyridin-2-yl)-6-(3-methylpiperazin-1-yl)pyridine-2-sulfonamide Hydrochloride] the Emax [1, 2] was 447%, the EC50 [1, 3] was 2810 nM and the “MTECC24 CFHBEC- Amax %” value (delF508-CFTR) was 79.7%. The EC50 (delF508-CFTR) was 232 nM.

In the case of `Cc1ccc(F)cc1-c1nc(NS(=O)(=O)c2cccc(N3C[C@@H](C)N[C@@H](C)C3)n2)ccc1C(F)(F)F` [Example 178, 6-((3S,5R)-3,5-dimethylpiperazin-1-yl)-N-(6-(5-fluoro-2-methylphenyl)-5-(trifluoromethyl)pyridin-2-yl)pyridine-2-sulfonamide Hydrochloride], the Emax [1, 2] is reported as 231%, the EC50 [1, 3] is reported as 1150 nM and the “MTECC24 CFHBEC- Amax %” value (delF508-CFTR) is reported as 66.3%. For the same molecule, the EC50 (delF508-CFTR) was 209 nM.

`Cc1ccc(F)cc1-c1nc(NS(=O)(=O)c2cccc(N3CCN(C)CC3)n2)ccc1C(F)(F)F` [Example 179, N-(6-(5-fluoro-2-methylphenyl)-5-(trifluoromethyl)pyridin-2-yl)-6-(4-methylpiperazin-1-yl)pyridine-2-sulfonamide] was tested, and the EC50 [1, 3] was 2080 nM, the “MTECC24 CFHBEC- Amax %” value (delF508-CFTR) was 91.9% and the EC50 (delF508-CFTR) was 31.6 nM.

`CC(=O)N1CCN(c2cccc(S(=O)(=O)Nc3ccc(C(F)(F)F)c(-c4cc(F)ccc4C)n3)n2)CC1` [Example 180, 6-(4-acetylpiperazin-1-yl)-N-(6-(5-fluoro-2-methylphenyl)-5-(trifluoromethyl)pyridin-2-yl)pyridine-2-sulfonamide] was tested, and the Emax [1, 2] was 627%, the EC50 [1, 3] was 1500 nM and the “MTECC24 CFHBEC- Amax %” value (delF508-CFTR) was 44.5%. For the same molecule, the EC50 (delF508-CFTR) was 9.4 nM.

For `Cc1ccccc1-c1nc(NS(=O)(=O)c2cccc(N3CC4CCC(C3)N4)n2)ccc1C(F)(F)F` [Example 181, 6-(3,8-diazabicyclo[3.2.1]octan-3-yl)-N-(6-(o-tolyl)-5-(trifluoromethyl)pyridin-2-yl)pyridine-2-sulfonamide Hydrochloride], the EC50 [1] was 2670 nM, the Emax ([1]; CFBE41o-) was 454% and the “MTECC24 CFHBEC- Amax %” value (delF508-CFTR) was 101.5%. The EC50 (delF508-CFTR) was 39.8 nM.

In the case of `Cc1ccccc1-c1nc(NS(=O)(=O)c2cccc(N3CCN(CCO)CC3)n2)ccc1C(F)(F)F` [Example 182, 6-(4-(2-hydroxyethyl)piperazin-1-yl)-N-(6-(o-tolyl)-5-(trifluoromethyl)pyridin-2-yl)pyridine-2-sulfonamide Hydrochloride], the Emax [1, 2] is reported as 485%, the EC50 [1, 3] is reported as 3220 nM and the “MTECC24 CFHBEC- Amax %” value (delF508-CFTR) is reported as 89.6%. For the same molecule, the EC50 (delF508-CFTR) was 87.8 nM.

For `Cc1ccccc1-c1nc(NS(=O)(=O)c2cccc(N3CCN(CC(N)=O)CC3)n2)ccc1C(F)(F)F` [Example 183, 2-(4-(6-(N-(6-(o-tolyl)-5-(trifluoromethyl)pyridin-2-yl)sulfamoyl)pyridin-2-yl)piperazin-1-yl)acetamide], the Emax [1, 2] was 191%, the EC50 [1, 3] was 896 nM and the “MTECC24 CFHBEC- Amax %” value (delF508-CFTR) was 67.8%. For the same molecule, the EC50 (delF508-CFTR) was 74.9 nM.

For `Cc1ccccc1-c1nc(NS(=O)(=O)c2cccc(N3CCN(C(N)=O)CC3)n2)ccc1C(F)(F)F` [Example 184, 4-(6-(N-(6-(o-tolyl)-5-(trifluoromethyl)pyridin-2-yl)sulfamoyl)pyridin-2-yl)piperazine-1-carboxamide], the Emax [1, 2] was 149%, the EC50 [1, 3] was 835 nM and the “MTECC24 CFHBEC- Amax %” value (delF508-CFTR) was 69.2%. For the same molecule, the EC50 (delF508-CFTR) was 53.5 nM.

For `Cc1ccccc1-c1nc(NS(=O)(=O)c2cccc(N3CCN(CC(F)F)CC3)n2)ccc1C(F)(F)F` [Example 185, 6-(4-(2,2-difluoroethyl)piperazin-1-yl)-N-(6-(o-tolyl)-5-(trifluoromethyl)pyridin-2-yl)pyridine-2-sulfonamide], the Emax [1, 2] was 877%, the EC50 [1, 3] was 1460 nM and the “MTECC24 CFHBEC- Amax %” value (delF508-CFTR) was 105.5%. For the same molecule, the EC50 (delF508-CFTR) was 4.6 nM.
